{"source": "patent US20240156718A1", "about": "“TOPICAL COMPOSITION AND USE THEREOF” (BLIS TECHNOLOGIES LIMITED, priority 2021, published 2024)", "key": {"[1]": {"test_system": "M. luteus Q24", "test": "Inhibition by potential prebiotics spotted on a Q24 lawn", "format": "cell-based, Streptococcus salivarius", "conditions": "20 μL spots, 24 hours at 37° C.; for Suitable to be used in Q24 containing serum/product?: 100% to 0.3% (oils at 100% only); for inhibitory concentration vs Blis Q24: 100% to 0.3%", "procedure": "CABK12 agar plates were split into segments of 6 and […] suspension of M. luteus […] raw ingredient P3. Each of the aqueous potential prebiotic substances to be screened were serially diluted in a range of concentrations from 100% to 0.3% using sterile distilled water. Oil based substances were tested at 100% only. 20 μL of each concentration, of each substance were pipetted into a spot onto one segment of the […]12 agar plate and was incubated for 24 hours at 37° C. 5% CO2 in air."}, "[2]": {"test_system": "EpiDerm tissues", "test": "EpiDerm safety experiment, cytokine levels day 0 and day 4", "format": "cell-based, human", "conditions": "Blis Q24 1×10^8 CFU/ml or vitamin C 50 μg/mL", "procedure": "Upon receipt, the final development of the immature EpiDerm (EPI-201-4D; MatTekCorporation, Ashland, MA, USA) tissues was completed following the manufacturer's instructions. In brief, the tissues were transferred from the agarose-containing gel on which they were shipped to cell culture plates containing pre-warmed differentiation medium (EPI-201-DM). They were then maintained at 37° C. in a 5% CO2 atmosphere for 4 days, with 2 or […] changes to fresh differentiation medium during that period. Finally, the fully developed EpiDerm tissues were transferred to fresh plates containing standard culture medium (EPI-100-NMM) for use in each experiment.\n(§1) The maturation of 36 immature EpiDerm tissues was performed as described above. The fully differentiated tissues were numbered from 1-36 and were randomly assigned to receive one of the treatments shown in Table 3. This was done such that each of the 6 combinations of main treatment (PBS, Q24 or vitamin C) and 0.5% SDS exposure treatment (±0.5% SDS) was randomly represented on each of five 6-well cell culture plates. The remaining 6 tissues, which were destined for histology or else to receive 5% SDS, were grouped together on the sixth cell culture plate. Following maturation, the 36 tissues were cultured in the assay medium for 24 h at 37° C. in a 5% CO2 atmosphere, after which the baseline (day 0) conditioned media samples were collected and stored frozen at −80° C. for cytokine measurement. […] The viabilities of the other 33 tissues were assessed using the MTT viability assay.\n(§2) For quantification of IL-1β, IFN-α2, IFN-γ, TNF-α, MCP-1 (CCL2), IL-6, IL-8 (CXCL8), IL-10, IL-12p70, IL-17A, 1L-18, IL-23, and IL-33, bead-based multiplex LEGENDplex™ analysis(LEGENDplex™ Human Inflammation Panel 1 (13-plea); BioLegend, San Diego, CA, USA) was used according to the manufacturer's instructions. The relevance of each of the measured cytokines is described in Table 4. […] Data were analysed via Legendplex V8.0 software (BioLegend) and specified as pg/mL."}, "[3]": {"test_system": "EpiDerm tissues", "test": "EpiDerm anti-inflammatory effect, cytokine release in response to 0.5% SDS", "format": "cell-based, human", "conditions": "pre-treatment, day 5 vs day 4", "procedure": "as §1, §2"}, "[4]": {"test_system": "skin commensals S. epidermidis #4, S. epidermidis E30, S. hominis ATCC 27844", "test": "Prebiotic activity against skin commensals (growth)", "format": "cell-based", "conditions": "FIG. 14", "procedure": "The same method was used as above for Blis Q24 ingredient except the suspensions with optical density of 0.125 were prepared for each of the 3 selected skin commensals.\nThe skin commensals selected were: • S. epidermidis #4—Sensitive to Q24 inhibition • S. epidermidis E30—Resistant to Q24 inhibition • S. hominis ATCC 27844—Mixed resistance condition dependent"}, "[5]": {"test_system": "Blis Q24", "test": "Effect of prebiotics on the growth of Blis Q24 in M17 broth", "format": "cell-based, Micrococcus luteus", "conditions": "5% prebiotic in M17 broth", "procedure": "A batch of M17 broth (Difco #218561) was made, excluding the lactose solution, by following the manufacturer's instructions. 50 ml of broth was dispensed into sterile 100 ml Schott bottles and 2.5 g (5%) of each potential prebiotic substance was added and mixed well using a magnetic stirrer and stir plate. The mixtures were autoclaved at 110° C. for 10 minutes and allowed to cool. The suspensions of the prebiotic candidates were prewarmed to 40° C. in order to allow for increased homogenisation of any oil-based components prior to dispensing into the wells. 2 ml of each suspension and an M17 only (control) were pipetted into a sterile 24 well tissue culture plate. A suspension of […] raw ingredient P3 was made in PBS and adjusted to an optical density of 0.125. 100 μl of the suspension was pipetted into each well. Once the suspension was added each well was mixed by aspirating and dispensing the solution 5 times with a 1 ml pipette. Each sample was enumerated at time points 0, 3, 6, 15, 26 and 34 hours using the following method. […] The number of colonies in each spot were then counted using an electronic colony counter and average to give the final result. […] Olive squalene was selected as one of the preferred prebiotics with 3 others that were analysed in combination with olive squalene and compared to the results of the prebiotic candidates alone (FIG. 13)."}}}
{"molecule": "NC(=O)NC1NC(=O)NC1=O", "note": "(stereo not drawn) [Allantoin]", "values": [{"measurement": "Suitable to be used in Q24 containing serum/product?", "setting": "[1]", "result": "Yes"}]}
{"molecule": "Hyaluronic acid", "values": [{"measurement": "Suitable to be used in Q24 containing serum/product?", "setting": "[1]", "result": "Yes"}]}
{"molecule": "CC1=C(/C=C/C(C)=C/C=C/C(C)=C/CO)C(C)(C)CCC1", "note": "[Retinol (Vitamin A), Retinol]", "values": [{"measurement": "Suitable to be used in Q24 containing serum/product?", "setting": "[1]", "result": "Yes"}]}
{"molecule": "O=C1O[C@H]([C@@H](O)CO)C(O)=C1O", "note": "[Vitamin C (Ascorbic acid), Ascorbic acid]", "values": [{"measurement": "IL-6 levels, day 4 vs day 0", "setting": "[2]; daily for 4 days", "result": "slight but significant increase"}, {"measurement": "IL-8 levels, day 4 vs day 0", "setting": "[2]; daily for 4 days", "result": "unchanged"}, {"measurement": "IL-18 levels, day 4 vs day 0", "setting": "[2]; no significant differences", "result": "trend for lower values"}, {"measurement": "Suitable to be used in Q24 containing serum/product?", "setting": "[1]", "result": "Yes"}, {"measurement": "IL-6 released in response to 0.5% SDS", "setting": "[3]", "result": "slight increase"}]}
{"molecule": "CC(O)C(=O)O", "note": "(stereo not drawn) [Lactic acid (LA), Lactic acid]", "values": [{"measurement": "Suitable to be used in Q24 containing serum/product?", "setting": "[1]", "result": "No"}, {"measurement": "inhibitory concentration vs Blis Q24", "setting": "[1]", "result": "> 2.5", "unit": "%"}]}
{"molecule": "NC(=O)c1cccnc1", "note": "[Niacinamide]", "values": [{"measurement": "Suitable to be used in Q24 containing serum/product?", "setting": "[1]", "result": "Yes"}]}
{"molecule": "CC(C)=CCC/C(C)=C/CC/C(C)=C/CC/C=C(\\C)CC/C=C(\\C)CCC=C(C)C", "note": "[Olive Squalene]", "values": [{"measurement": "growth of skin commensals compared to control media", "setting": "[4]", "result": "do not offer any advantage"}, {"measurement": "Suitable to be used in Q24 containing serum/product?", "setting": "[1]", "result": "Yes"}]}
{"molecule": "O=C(O)c1ccccc1O", "note": "[Salicylic acid (SA), Salicylic acid]", "values": [{"measurement": "Suitable to be used in Q24 containing serum/product?", "setting": "[1]", "result": "No"}, {"measurement": "inhibitory concentration vs Blis Q24", "setting": "[1]", "result": "> 5", "unit": "%"}]}
{"molecule": "Cc1c(C)c2c(c(C)c1O)CC[C@@](C)(CCC[C@H](C)CCC[C@H](C)CCCC(C)C)O2", "note": "[Vitamin E, D Alpha Tocopherol 1000IU, D Alpha Tocopherol]", "values": [{"measurement": "Suitable to be used in Q24 containing serum/product?", "setting": "[1]", "result": "Yes"}]}
{"molecule": "OC[C@@H](O)[C@H](O)[C@@H](O)CO", "note": "[Xylitol]", "values": [{"measurement": "Suitable to be used in Q24 containing serum/product?", "setting": "[1]", "result": "Yes"}, {"measurement": "growth of Q24 compared to the control", "setting": "[5]", "result": "detrimental to the live Q24 cell count at 24 hours"}]}
